Results reported in ChEMBL document CHEMBL1136184, “Identification of a novel class of orally active pyrimido[5,4-3][1,2,4]triazine-5,7-diamine-based hypoglycemic agents with protein tyrosine phosphatase inhibitory activity” (Bioorg Med Chem Lett, 2003).
Several values for one entry are separate records, joined by “and”; a condition that tells them apart may be missing. Equal entries are not always repeated.

Experiments:
[1] = target: T1, Tyrosine-protein phosphatase non-receptor type 1 (Homo sapiens, UniProt P18031); test: Inhibition of Protein-tyrosine phosphatase 1B in 300 nM DTT
T1 sequence (P18031 whole entry): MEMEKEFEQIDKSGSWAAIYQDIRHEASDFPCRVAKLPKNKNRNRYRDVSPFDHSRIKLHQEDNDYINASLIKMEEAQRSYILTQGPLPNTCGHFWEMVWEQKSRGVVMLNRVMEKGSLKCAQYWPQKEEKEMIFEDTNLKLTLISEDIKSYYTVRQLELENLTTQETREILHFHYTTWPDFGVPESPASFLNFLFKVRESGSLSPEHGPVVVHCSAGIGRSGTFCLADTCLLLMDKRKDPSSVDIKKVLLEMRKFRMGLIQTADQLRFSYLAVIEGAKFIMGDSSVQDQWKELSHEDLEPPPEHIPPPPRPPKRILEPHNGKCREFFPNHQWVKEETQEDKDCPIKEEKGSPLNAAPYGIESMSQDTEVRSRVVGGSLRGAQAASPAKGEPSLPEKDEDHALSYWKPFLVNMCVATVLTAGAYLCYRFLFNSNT

[2] = target: T1, Tyrosine-protein phosphatase non-receptor type 1; test: Inhibition of Protein-tyrosine phosphatase 1B in 2 mM DTT
[3] = Plasma clearance in mice; format: ADME, organism-based; settings: mouse
[4] = Half life in mice; format: ADME, organism-based; settings: mouse, in vivo
[5] = Steady state volume of distribution was determined in mice; format: ADME, organism-based; settings: mouse, in vivo; read-out: Vss
[6] = Cmax value was determined; format: ADME, organism-based; settings: mouse, in vivo
[7] = target: T2, Tyrosine-protein phosphatase non-receptor type 11 (Homo sapiens, UniProt Q06124); test: In vitro inhibitory concentration required against Tyrosine phosphatase SHP-2 in the presence of 300 nM DTT
T2 sequence (Q06124 whole entry): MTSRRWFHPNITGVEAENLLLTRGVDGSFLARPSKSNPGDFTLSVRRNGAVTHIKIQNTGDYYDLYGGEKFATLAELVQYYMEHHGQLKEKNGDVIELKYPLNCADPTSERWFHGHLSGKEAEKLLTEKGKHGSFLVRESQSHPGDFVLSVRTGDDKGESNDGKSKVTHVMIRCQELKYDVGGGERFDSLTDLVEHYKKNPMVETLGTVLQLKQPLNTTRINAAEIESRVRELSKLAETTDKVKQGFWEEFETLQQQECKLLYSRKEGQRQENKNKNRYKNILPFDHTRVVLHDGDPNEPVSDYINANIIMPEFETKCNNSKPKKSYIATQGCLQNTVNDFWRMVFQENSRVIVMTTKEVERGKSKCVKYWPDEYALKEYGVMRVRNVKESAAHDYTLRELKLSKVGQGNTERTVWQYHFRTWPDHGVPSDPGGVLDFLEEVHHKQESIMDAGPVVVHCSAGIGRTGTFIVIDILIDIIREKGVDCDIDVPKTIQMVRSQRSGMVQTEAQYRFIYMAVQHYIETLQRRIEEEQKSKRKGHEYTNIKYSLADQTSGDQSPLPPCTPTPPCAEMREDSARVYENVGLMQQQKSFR

[8] = target: Receptor-type tyrosine-protein phosphatase F (Homo sapiens, UniProt P10586); test: In vitro inhibitory concentration required against Leukocyte antigen related receptor phosphatase (LAR) in the presence of 300 nM DTT
Mus musculus = test: Percent change in blood glucose in male ob/ob mice dosed at 5 mg/kg orally evaluated 2 hr postdose on day 5; format: functional; settings: route oral
[9] = Oral availability at 50 mg/kg po in male mice; format: ADME, organism-based; set-up: dose 50 mg/kg, route oral; settings: mouse, in vivo
[10] = target: Receptor-type tyrosine-protein phosphatase alpha (Homo sapiens, UniProt P18433); test: In vitro inhibitory concentration required against Protein-tyrosine phosphatase alpha in the presence of 300 nM DTT
Receptor-type tyrosine-protein phosphatase alpha, sequence (P18433 whole entry): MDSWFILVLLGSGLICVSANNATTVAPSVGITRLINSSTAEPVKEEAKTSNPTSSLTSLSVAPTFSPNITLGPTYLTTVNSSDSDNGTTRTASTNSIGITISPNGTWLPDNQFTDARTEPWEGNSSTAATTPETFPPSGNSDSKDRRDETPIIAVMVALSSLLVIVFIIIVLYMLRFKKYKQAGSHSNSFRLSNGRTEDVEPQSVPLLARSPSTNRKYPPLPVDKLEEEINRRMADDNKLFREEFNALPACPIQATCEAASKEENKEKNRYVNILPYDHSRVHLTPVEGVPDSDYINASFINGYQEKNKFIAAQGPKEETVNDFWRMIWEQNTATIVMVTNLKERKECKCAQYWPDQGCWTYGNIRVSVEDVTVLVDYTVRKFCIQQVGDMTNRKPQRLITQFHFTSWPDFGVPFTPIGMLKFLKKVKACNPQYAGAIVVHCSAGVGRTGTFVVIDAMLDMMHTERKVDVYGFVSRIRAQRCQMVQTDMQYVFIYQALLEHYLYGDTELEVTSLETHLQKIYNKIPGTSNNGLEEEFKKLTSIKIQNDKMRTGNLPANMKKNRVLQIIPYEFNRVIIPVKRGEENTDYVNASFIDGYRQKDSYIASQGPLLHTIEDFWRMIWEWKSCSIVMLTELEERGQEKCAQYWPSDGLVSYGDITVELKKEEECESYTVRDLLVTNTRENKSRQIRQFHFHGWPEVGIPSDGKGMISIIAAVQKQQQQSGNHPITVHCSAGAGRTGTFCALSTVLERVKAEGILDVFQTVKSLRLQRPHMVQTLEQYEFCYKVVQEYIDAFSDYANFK

Receptor-type tyrosine-protein phosphatase F, sequence (P10586 whole entry): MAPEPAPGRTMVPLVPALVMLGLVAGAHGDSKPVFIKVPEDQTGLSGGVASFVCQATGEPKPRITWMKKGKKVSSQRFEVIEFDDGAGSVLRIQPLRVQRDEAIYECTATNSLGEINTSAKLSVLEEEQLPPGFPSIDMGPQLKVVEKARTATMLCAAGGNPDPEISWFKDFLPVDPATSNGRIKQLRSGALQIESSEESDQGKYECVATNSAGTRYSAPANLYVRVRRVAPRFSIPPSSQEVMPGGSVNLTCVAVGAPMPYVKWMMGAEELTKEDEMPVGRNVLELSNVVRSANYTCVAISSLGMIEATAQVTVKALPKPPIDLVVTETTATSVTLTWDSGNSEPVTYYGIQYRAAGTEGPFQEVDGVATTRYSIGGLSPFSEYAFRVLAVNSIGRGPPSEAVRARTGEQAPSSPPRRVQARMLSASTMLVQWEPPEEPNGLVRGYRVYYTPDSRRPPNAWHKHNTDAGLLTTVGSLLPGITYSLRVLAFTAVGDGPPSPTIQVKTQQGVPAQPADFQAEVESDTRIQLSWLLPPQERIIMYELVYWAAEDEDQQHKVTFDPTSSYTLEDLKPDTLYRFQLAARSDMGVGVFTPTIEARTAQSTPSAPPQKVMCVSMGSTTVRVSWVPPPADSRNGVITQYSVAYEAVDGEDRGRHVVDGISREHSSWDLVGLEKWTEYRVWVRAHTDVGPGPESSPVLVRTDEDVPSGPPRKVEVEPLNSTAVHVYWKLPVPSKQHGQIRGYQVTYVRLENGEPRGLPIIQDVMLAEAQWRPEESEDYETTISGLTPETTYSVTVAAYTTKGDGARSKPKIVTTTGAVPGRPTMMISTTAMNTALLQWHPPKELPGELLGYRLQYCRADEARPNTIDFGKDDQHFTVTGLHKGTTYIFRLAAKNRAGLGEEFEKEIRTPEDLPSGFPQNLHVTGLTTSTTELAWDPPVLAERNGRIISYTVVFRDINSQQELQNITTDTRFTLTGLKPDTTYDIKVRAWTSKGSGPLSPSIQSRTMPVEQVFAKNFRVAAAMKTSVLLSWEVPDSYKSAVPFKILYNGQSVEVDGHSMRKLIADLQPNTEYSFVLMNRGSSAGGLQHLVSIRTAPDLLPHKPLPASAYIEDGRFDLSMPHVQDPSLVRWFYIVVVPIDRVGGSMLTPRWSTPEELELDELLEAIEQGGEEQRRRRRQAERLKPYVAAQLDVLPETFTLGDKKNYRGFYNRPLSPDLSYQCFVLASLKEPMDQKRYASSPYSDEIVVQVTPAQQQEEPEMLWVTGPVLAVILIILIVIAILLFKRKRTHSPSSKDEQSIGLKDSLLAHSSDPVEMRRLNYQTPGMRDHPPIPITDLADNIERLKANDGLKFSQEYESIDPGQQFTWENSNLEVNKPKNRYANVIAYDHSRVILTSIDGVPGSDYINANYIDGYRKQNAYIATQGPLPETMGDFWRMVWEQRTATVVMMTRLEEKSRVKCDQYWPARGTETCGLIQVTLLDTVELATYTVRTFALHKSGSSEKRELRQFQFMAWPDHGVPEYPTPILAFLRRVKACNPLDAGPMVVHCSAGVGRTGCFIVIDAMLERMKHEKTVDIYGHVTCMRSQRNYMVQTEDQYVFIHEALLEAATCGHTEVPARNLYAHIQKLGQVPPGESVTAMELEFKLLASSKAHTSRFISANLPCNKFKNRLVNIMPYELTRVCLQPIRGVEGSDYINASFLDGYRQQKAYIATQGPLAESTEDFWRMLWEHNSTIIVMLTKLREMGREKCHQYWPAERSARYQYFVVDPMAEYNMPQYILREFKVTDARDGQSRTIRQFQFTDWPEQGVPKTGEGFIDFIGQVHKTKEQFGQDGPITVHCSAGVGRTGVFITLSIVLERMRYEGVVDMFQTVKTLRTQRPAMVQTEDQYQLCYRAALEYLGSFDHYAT

Compound	IC50 [1]	IC50 [2] [µM]	other results
Nc1nc(N)c2nc(CN3CCN(c4ccccc4)CC3)nnc2n1	> 100 µM	> 100	–
Nc1nc(N)c2nc(CN3CCN(Cc4cccc5ccccc45)CC3)nnc2n1	4.5 µM	40	–
Nc1nc(N)c2nc(CN3CCN(Cc4ccc5ccccc5c4)CC3)nnc2n1	3.5 µM	33	–
Nc1nc(N)c2nc(CN3CCN(Cc4ccc(-c5ccccc5)cc4)CC3)nnc2n1	2.9 µM and 8 µM	18	clearance [3]: 104 mL/min/kg; half-life [4]: 1 h; Vd [5]: 3.1 L/kg; Cmax [6]: 4 µM; IC50 [7]: 5 µM; IC50 [8]: 16 µM; Change in blood glucose (Mus musculus): -19%; bioavailability [9]: 97%; IC50 [10]: 15 µM
CCN(CC)Cc1nnc2nc(N)nc(N)c2n1	29 µM and 12 µM	> 100	IC50 [7]: 14 µM; IC50 [8]: 28 µM; IC50 [10]: 28 µM
Nc1nc(N)c2nc(CN3CCNCC3)nnc2n1	29 µM	91	–
Nc1nc(N)c2nc(CN3CCN(Cc4ccccc4)CC3)nnc2n1	6.2 µM and 8 µM	98	IC50 [7]: 9 µM; IC50 [8]: 12 µM; Change in blood glucose (Mus musculus): -23%; IC50 [10]: 24 µM
Nc1nc(N)c2nc(CN(CCO)CCO)nnc2n1	97 µM	> 100	–
CN1CCN(Cc2nnc3nc(N)nc(N)c3n2)CC1	21 µM	87	–
Nc1nc(N)c2nc(CN3CCCCC3)nnc2n1	24 µM	> 100	–
Nc1nc(N)c2nc(CN3CCOCC3)nnc2n1	24 µM	> 100	–
